The values that follow come from patent US4794197A, “All-cis-1,3,5-triamino-2,4,6,-cyclohexanetriol derivatives, their use, processes for their preparation and pharmaceutical preparations containing them” (priority 1985, dated 1988).

Series [1] is described as follows: orientating LD50-toxicity test on white mice after intravenous injection. As to conditions: mouse, in vivo. The text has this: (§1) all-cis-1,3,5-Triamino-2,4,6-cyclohexanetriol (10), all-cis-1,3,5-tris-(dimethylamino)-2,4,6-cyclohexane triol hydrochloride (12a), all-cis-1,3,5-tris-(trimethylammonio)-2,4,6-[…] (19c) and all-cis-1,3,5-tris-(succinoylamino)-2,4,6-cyclohexanetriol are found to have the following values in mg/kg of body weight in the orientating LD50 -toxicity test on white mice after intravenous injection: 158, 440, 235 and >1000. The elimination of iron from rats with an excessively high iron level by excretion in the urine and faeces after intravenous administration is shown in the following Table by comparison with the figures obtained with Desferal. The rates of excretion were measured over 72 hours after application.

A short description of the next series: Solubility. Format: physicochemical.
Another series in a line: pK-values (approximate). Format: physicochemical.
Series [2] in a line: Response to iron(III): keeping iron(III) in solution by complex formation. Format: physicochemical.
A short description of series [3]: Response to β-FeO(OH): dissolution of this rust. The following applies: in words.
Series [4] in a line: general statement on toxicity.
Series [5] relates to rats with an excessively high iron level. The series is described as follows: elimination of iron from rats with an excessively high iron level by excretion in urine and faeces after intravenous administration. Format: in vivo. As to conditions: over 72 hours, by comparison with Desferal (= 1).
Text: as §1

The conditions of series [6]: cited from earlier work.
The conditions of series [7]: parenteral; cited from earlier work.
The mark [8] stands for this setting: white mice, intravenous injection, orientating test, read-out: LD50.
[9] abbreviates: pK4, fourth lowest value of the list.
The mark [10] stands for this setting: pK5, fifth lowest value of the list.
Where [11] appears, read: pK6, sixth lowest value of the list.
[12] abbreviates: pK2, second lowest value of the list.
Where [13] appears, read: pK3, third lowest value of the list.

The structures appear in SMILES notation. Where two headings read alike, the source gives them in different places.

Consider `O=C(O)CCC(=O)N[C@H]1[C@@H](O)[C@@H](NC(=O)CCC(=O)O)[C@@H](O)[C@@H](NC(=O)CCC(=O)O)[C@H]1O` [Example 16, all-cis-1,3,5a-tris-(succinoylamino)-2,4,6-cyclohexanetriol], for which the LD50 in series [1] (setting [8]) is greater than 1000 mg/kg. Moreover, the Solubility result in “Solubility” (cyclohexane) is on record as “sparingly”; in the series “Solubility” (water), “Readily”; in “Solubility” (water/EtOH), “Readily”; in “Solubility” (water/MeOH) it was “Readily”.
Consider `CN(C)[C@H]1[C@@H](O)[C@@H](N(C)C)[C@@H](O)[C@@H](N(C)C)[C@H]1O` [Example 12b, all-cis-1,3,5-Tris-(dimethylammonio)-2,4,6-cyclohexanetriol sulphate], for which the “solubility in boiling methanol” value in the series “Solubility” (boiling methanol) was “virtually insoluble”.
Consider `O=C(O)CN[C@H]1[C@@H](O)[C@@H](NCC(=O)O)[C@@H](O)[C@@H](NCC(=O)O)[C@H]1O` [Example 13, all-cis-1,3,5-Tris-(ammonioacetic acid)-2,4,6-cyclohexanetriol trichloride], for which the pKa was roughly 5.7 in the series “pK-values (approximate)” (setting [9]), roughly 7.8 in the series “pK-values (approximate)” (setting [10]), roughly 8.9 in “pK-values (approximate)” (setting [11]) and less than 3 in the series “pK-values (approximate)” (three lowest pK-values). In series [2] (ligand:iron ratio of 1:1, pH higher than about 11), the “precipitation of iron hydroxide” value was “Iron hydroxide precipitates”.
As for `O=C(O)CCN[C@H]1[C@@H](O)[C@@H](NCCC(=O)O)[C@@H](O)[C@@H](NCCC(=O)O)[C@H]1O` [Example 12], the pKa is roughly 6.2 in the series “pK-values (approximate)” (pK1, lowest value of the list); roughly 8.2 in the series “pK-values (approximate)” (setting [12]); roughly 9.7 in “pK-values (approximate)” (setting [13]). Further, the “pH range in which a solution containing Fe(III) and ligand is clear” value in series [2] (Fe(III):ligand=1:1, result in words) is “clear over the entire ranges of pH”. For the same molecule, the “solubility of the iron complex” value in series [2] (pH 3 to 6) is listed as “relatively sparingly soluble”. In addition, the “maximum Fe(III) kept in solution per ligand” value in series [2] (pH 7.5) is reported as ≤ 2 Fe(III) per ligand.
In the case of `CCCCN(CC(=O)O)[C@H]1[C@@H](O)[C@@H](N(CCCC)CC(=O)O)[C@@H](O)[C@@H](N(CCCC)CC(=O)O)[C@H]1O` [Example 15, all-cis-1,3,5-(N-butylammonioacetic acid)-2,4,6-cyclohexanetriol trichloride], the “Response to β-FeO(OH)” value in series [3] was “Identical to Examples 13 and 14”.
For `N#CCN[C@H]1[C@@H](O)[C@@H](NCC#N)[C@@H](O)[C@@H](NCC#N)[C@H]1O` [all-cis-1,3,5-tris-(aminoacetic acid nitrile)-2,4,6-cyclohexanetriol], the pKa in “pK-values (approximate)” (highest pK of nitrile intermediate) is roughly 6.5; in the series “pK-values (approximate)” (next lowest pK of nitrile intermediate), roughly 3.
`N#CCCN[C@H]1[C@@H](O)[C@@H](NCCC#N)[C@@H](O)[C@@H](NCCC#N)[C@H]1O` [all-cis-1,3,5-tris-(2'-aminopropionitrile)-2,4,6-cyclohexanetriol]: the pKa is roughly 3 in the series “pK-values (approximate)” (pK1, lowest value of the list); roughly 4.5 in the series “pK-values (approximate)” (setting [12]); roughly 6.3 in the series “pK-values (approximate)” (setting [13]).
For the molecule `N[C@H]1[C@@H](O)[C@@H](N)[C@@H](O)[C@@H](N)[C@H]1O` [Example 10, all-cis-1,3,5-Triamino-2,4,6-cyclohexanetriol], in series [4], the toxicity result is “relatively low toxicity”. Besides, the LD50 in series [1] (setting [8]) amounted to 158 mg/kg. Further, in [5], the “elimination of iron by excretion in the faeces” value (“elimination … in the faeces” for short) was 0.2 and the “elimination of iron by excretion in the urine” value (from here on “elimination … in the urine”) is given as 0.1.
Turning to `CN(C)[C@H]1[C@@H](O)[C@@H](N(C)C)[C@@H](O)[C@@H](N(C)C)[C@H]1O` [Example 12a, all-cis-1,3,5-Tris-(dimethylammonio)-2,4,6-cyclohexanetriol trichloride dihydrate], the 50% lethal dose (LD50) in series [1] (iv) was determined as 440 mg/kg. For the same molecule, in series [5], the “elimination … in the faeces” value was determined as 0.5 and the “elimination … in the urine” value is reported as 1.
For the molecule `O=P(O)(O)CN[C@H]1[C@@H](O)[C@@H](NCP(=O)(O)O)[C@@H](O)[C@@H](NCP(=O)(O)O)[C@H]1O` [Example 11, all-cis-1,3,5-Tris-(ammoniomethanephosphonic acid)-2,4,6-cyclohexanetriol trichloride], the pKa was roughly 5.2 in the series “pK-values (approximate)” (pK1, lowest value of the list); roughly 6 in “pK-values (approximate)” (setting [12]); roughly 6.5 in the series “pK-values (approximate)” (setting [13]); roughly 7 in the series “pK-values (approximate)” (setting [9]); roughly 8 in the series “pK-values (approximate)” (setting [10]); roughly 9.5 in the series “pK-values (approximate)” (setting [11]).
Regarding `CC(=O)N(O)CCCCCNC(=O)CCC(=O)N(O)CCCCCNC(=O)CCC(=O)N(O)CCCCCN` [Desferal, 30-amino-3,14,25-trihydroxy-3,9,14,20,25-pentaaza-2,10,13,21,24-triacontane-pentanone-methane sulphonate, reference compound], the “serious side effects after prolonged administration” value in series [6] is listed as “visual disturbances”. In series [5], the “elimination … in the faeces” value turned out to be 1 and the “elimination … in the urine” value is given as 1. Besides, the “half life in the body” value in series [7] is listed as “very short”.
`C[N+](C)(C)[C@H]1[C@@H](O)[C@@H]([N+](C)(C)C)[C@@H](O)[C@@H]([N+](C)(C)C)[C@H]1O` [Example 19c]: the LD50 in series [1] (setting [8]) came out at 235 mg/kg. In series [5], the “elimination … in the faeces” value stood at 0.5 and the “elimination … in the urine” value stood at 0.2.
